Consider two compounds from US20150313236A1 (ROHM AND HAAS COMPANY, priority 2012, published 2015).

Like-named read-outs stand apart in the source and are kept apart here.

For experiment [1], the system named is Stichococcus bacillaris SAG 379-1a. Description: Algal efficacy test of dry paint films (modified ASTM 5589, 6-well plates). It is filed as cell-based. The following applies: 3 weeks. The method, then: (§1) ROCIMA™ 250 (40% IPBC) was post added to a white, acrylic/silicone based outdoor paint free of biocides to give a total active ingredient concentration of 10000 and 1000 ppm respectively. These paints were then diluted with an antimicrobial free acrylic/silicone based paint and mixed to prepare targeted concentrations of antimicrobial compounds for the testing. The total biocides concentrations tested were 125, 250, 500, 1000, 2000 and 5000 ppm. After biocides addition or dilution, the paints were mixed 90 seconds with the horse power shaker (AXEL 75M3372/Agitateur SO-10MI) until uniformity was achieved. Paints containing different antimicrobial compounds at the same levels were mixed together in order to obtain the desired ratio of antimicrobial compounds. After one day, the paints were applied to Schleicher & Schuell filter paper at 280 μm wet film thickness and dried for 3 days at room temperature avoiding direct exposure to sunlight. Square discs (1.6 cm×1.6 cm) were cut out from each panel and were used as the substrate for algal efficacy tests. This sample size allowed for an agar border when the sample disc was placed into the well of the test plate.
(§2) Algal efficacy was tested according to modified ASTM 5589 which is a standard accelerated test method for determining resistance of various coatings (including paints) to algal defacement. To accommodate for high-throughput screening, this method was scaled down from petri dishes to 6-well plates. Bold Modified Basal Freshwater Nutrient Solution was used as growth medium. A single coated filter paper coupon was placed with a pair of sterile forceps at the center of the agar plug (on top) with the painted surface facing upwards. Algal inoculums were prepared by mixing equal concentrations (1×10^6 cfu/ml) and equal volumes of exponentially growing algae cultures.
(§3) Each well that contains a tested coupon was inoculated with 1750 μl of algal suspensions (1×10^6 cfu/ml) making sure that the whole surface (paint film as well as the agar surrounding it) was evenly covered. The plates were incubated at room temp (21° C.-25° C.) with cyclic exposure to light and dark phases, for a period of three weeks.
(§4) At the end of the three week incubation period, the samples were scored for percent inhibition regarding visible algal growth compared to the blank sample (0% inhibition).
(§5) The Synergy Index calculation was performed as follows.
(§6) The SI is calculated based on F. C. Kull et.
(§7) SI value of <1 in the formula indicates a synergism of the blended biocides exists.
(§8) The minimal targeted inhibition was set at 75%, meaning a coupon with at least 75% algal growth inhibition was considered as a pass.

The subject of another experiment is Chlorella sp. ATCC 7516. The experiment is described as above. It is filed as cell-based. The following applies: for inhibition at 2000 ppm: 504 h, read-out: % inhibition of visible algal growth. How it is done: as §1, §2, §3, §4, §5, §6, §7, §8

For the compound `CCCCNC(=O)OCC#CI` [IPBC, 3-Iodoprop-2-yn-1-yl butylcarbamate], in experiment [1] (Stichococcus bacillaris, 504 h, total conc 1000 ppm, vs blank sample, read-out: % inhibition of visible algal growth), the inhibition at 1000 ppm came out at 100%. Also, the “Total conc (minimum inhibitory concentration chosen for SI; pass level ≧75% inhibition)” value in experiment [1] (total active in liquid paint, dry film) stood at 1000 ppm; with Chlorella sp. ATCC 7516 (total active in liquid paint, dry film, 3 weeks), 2000 ppm. The inhibition at 2000 ppm in the experiment on Chlorella sp. ATCC 7516 (total conc 2000 ppm, 3 weeks, vs blank sample) was 100%.

For `O=c1[nH]c2c(c(=O)n1C1CCCCC1)CCC2` [Lenacil, 3-cyclohexyl-1,5,6,7-tetrahydrocyclopentapyrimidine-2,4(3H)-dione], the inhibition at 2000 ppm was determined as 80% in experiment [1] (Stichococcus bacillaris, 504 h, total conc 2000 ppm, vs blank sample, read-out: % inhibition of visible algal growth) and 65% in the experiment with Chlorella sp. ATCC 7516.

The term inhibition denotes how much of the control response was suppressed.
